According to US6355464B1, “M. tuberculosis RNA polymerase alpha subunit” (Anadys Pharmaceuticals, Inc., priority 1996, dated 2002):

Biological target: M. tuberculosis RNA polymerase (Mycobacterium tuberculosis, UniProt P9WGY7+P9WGY9+P9WGZ1)
Assay: In vitro (cell-free) high-throughput transcription screen with reconstituted RNA polymerase and T101 promoter template
Assay type: biochemical
Details: rifampicin at 30 nM; control compound; TCA-precipitated [α-32P]-UTP-labelled RNA, 30 min at 25° C.
Experimental: High-throughput screens for anti-tuberculosis agents may be performed using either an in vitro or in vivo format. In either case, the ability of test compounds to inhibit M. tuberculosis RNA polymerase-driven transcription of M. tuberculosis promoters is tested. Typically, a strong promoter such as T101 is used for the test reactions. The sequence of the T101 promoter is: identified by SEQ. ID. NO. 15 and read as follows.
The following procedure is used for cell-free high-throughput screening. A Tomtec Quadra 96-well pipetting station is used to add the reaction components to polypropylene 96-well dishes. 5 μl aliquots of test compounds dissolved in DMSO (or DMSO alone as a control) are added to wells. This is followed by 20 μl of the RNA polymerase mixture, which consists of: 10 mM DTT, 200 mM KCl, 10 mM Mg^+2, 1.5 μM bovine serum albumin, and 0.25 μg reconstituted RNA polymerase. […]
After incubation for 30 min at 25° C., the reaction is stopped by addition of 150 μl 10% trichloroacetic acid (TCA). […] The wells of the microtiter plate and the filter are washed twice with 5% TCA and bound radioactivity is determined usinjg a Wallac microbeta 1450 scintillation counter. Inhibitory activity due to the test compound is calculated according to the formula: [formula] […]

Chain of M. tuberculosis RNA polymerase (P9WGY7 whole entry, looked up): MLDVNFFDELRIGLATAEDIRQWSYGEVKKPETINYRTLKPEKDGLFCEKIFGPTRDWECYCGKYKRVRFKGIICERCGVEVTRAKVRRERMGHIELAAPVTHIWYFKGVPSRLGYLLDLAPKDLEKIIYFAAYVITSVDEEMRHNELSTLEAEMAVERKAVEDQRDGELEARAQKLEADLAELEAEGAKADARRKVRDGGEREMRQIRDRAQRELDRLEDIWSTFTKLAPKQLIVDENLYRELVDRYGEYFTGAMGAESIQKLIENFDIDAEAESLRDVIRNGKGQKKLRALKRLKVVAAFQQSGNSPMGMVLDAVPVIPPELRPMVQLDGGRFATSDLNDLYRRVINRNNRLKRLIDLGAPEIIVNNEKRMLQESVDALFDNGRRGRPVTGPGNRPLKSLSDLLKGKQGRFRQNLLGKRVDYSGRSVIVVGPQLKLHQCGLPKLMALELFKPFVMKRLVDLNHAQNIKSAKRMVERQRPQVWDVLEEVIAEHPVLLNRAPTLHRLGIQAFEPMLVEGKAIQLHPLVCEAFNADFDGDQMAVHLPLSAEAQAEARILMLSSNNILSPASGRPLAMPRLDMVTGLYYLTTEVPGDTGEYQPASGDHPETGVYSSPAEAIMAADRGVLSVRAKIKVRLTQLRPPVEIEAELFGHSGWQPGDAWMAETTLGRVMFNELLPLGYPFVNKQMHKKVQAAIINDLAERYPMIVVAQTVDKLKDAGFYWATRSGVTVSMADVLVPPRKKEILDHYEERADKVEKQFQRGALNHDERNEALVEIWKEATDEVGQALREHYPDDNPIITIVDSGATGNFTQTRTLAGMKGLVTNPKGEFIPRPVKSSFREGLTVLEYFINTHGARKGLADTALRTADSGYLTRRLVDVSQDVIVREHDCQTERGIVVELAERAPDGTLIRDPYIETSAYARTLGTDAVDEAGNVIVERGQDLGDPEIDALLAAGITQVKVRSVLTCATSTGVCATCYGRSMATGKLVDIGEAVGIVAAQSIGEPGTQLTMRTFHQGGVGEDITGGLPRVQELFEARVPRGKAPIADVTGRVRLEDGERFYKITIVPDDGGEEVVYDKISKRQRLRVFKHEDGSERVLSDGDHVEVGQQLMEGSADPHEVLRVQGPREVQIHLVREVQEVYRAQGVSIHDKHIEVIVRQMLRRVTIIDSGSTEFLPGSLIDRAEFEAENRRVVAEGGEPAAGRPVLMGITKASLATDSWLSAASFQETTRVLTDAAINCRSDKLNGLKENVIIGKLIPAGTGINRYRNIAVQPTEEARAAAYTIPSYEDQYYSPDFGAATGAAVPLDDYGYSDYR
Chain of M. tuberculosis RNA polymerase (P9WGY9 whole entry, looked up): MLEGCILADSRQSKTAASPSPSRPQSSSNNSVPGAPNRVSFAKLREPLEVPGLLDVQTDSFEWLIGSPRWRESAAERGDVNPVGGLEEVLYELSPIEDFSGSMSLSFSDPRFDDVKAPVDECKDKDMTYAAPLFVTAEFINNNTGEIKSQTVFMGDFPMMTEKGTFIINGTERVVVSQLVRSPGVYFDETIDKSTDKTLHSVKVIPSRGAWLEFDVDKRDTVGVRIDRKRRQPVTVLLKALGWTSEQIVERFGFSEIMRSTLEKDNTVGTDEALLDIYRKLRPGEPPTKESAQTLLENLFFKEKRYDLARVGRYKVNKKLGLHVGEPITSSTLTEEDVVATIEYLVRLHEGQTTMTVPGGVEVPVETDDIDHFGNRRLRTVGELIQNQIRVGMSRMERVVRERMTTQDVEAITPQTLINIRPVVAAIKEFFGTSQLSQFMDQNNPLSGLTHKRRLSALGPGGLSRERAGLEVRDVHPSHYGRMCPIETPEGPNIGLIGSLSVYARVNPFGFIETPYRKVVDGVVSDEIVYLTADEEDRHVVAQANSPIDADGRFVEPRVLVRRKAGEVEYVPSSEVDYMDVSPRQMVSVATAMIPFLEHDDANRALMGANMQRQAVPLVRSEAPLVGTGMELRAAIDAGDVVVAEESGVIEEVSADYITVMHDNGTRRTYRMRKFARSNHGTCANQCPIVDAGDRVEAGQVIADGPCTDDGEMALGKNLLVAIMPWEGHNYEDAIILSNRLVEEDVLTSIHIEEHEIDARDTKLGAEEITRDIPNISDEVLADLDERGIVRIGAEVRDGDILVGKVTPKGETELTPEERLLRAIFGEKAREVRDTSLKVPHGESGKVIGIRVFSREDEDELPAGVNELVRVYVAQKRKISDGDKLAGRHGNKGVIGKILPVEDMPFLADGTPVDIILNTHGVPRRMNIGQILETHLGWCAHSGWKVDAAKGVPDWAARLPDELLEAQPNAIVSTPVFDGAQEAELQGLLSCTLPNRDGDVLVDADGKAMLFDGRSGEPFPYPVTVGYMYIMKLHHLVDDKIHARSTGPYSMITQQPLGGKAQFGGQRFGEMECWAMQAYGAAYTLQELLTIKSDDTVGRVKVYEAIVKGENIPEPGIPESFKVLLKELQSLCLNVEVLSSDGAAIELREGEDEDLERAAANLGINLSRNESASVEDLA
Chain of M. tuberculosis RNA polymerase (P9WGZ1 whole entry, looked up): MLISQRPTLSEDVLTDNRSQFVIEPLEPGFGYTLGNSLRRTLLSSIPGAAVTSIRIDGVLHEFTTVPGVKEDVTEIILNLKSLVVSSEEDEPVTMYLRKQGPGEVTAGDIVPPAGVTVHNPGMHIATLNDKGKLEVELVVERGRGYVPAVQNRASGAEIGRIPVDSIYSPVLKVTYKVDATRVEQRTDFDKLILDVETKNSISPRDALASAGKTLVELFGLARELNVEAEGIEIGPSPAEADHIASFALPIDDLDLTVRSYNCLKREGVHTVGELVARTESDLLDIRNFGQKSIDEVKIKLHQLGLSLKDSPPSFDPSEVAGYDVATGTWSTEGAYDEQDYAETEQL

SMILES: CO[C@H]1/C=C/O[C@@]2(C)Oc3c(C)c(O)c4c(O)c(c(/C=N/N5CCN(C)CC5)c(O)c4c3C2=O)NC(=O)/C(C)=C\C=C\[C@H](C)[C@H](O)[C@@H](C)[C@@H](O)[C@@H](C)[C@H](OC(C)=O)[C@@H]1C [rifampicin]
- inhibition of transcription: 50-75%
